One block for each compound: values may come before it.
Assays:
[1] = test system: perfused isolated rat heart; test: Perfused isolated rat heart, ischaemia/reperfusion, DMPO spin trapping in the coronary effluents (EPR)
Procedure: The animals used are male rats of the Sprague Dawley strain (Harlan et CERJ, France) of 250-300 g) fed ad libitum. The rats are anaesthetized by an intraperitoneal injection of sodium pentobarbital (50 mg/kg of body weight). The thoracic cavity is then opened and the heart rapidly removed and immersed in perfusion liquid (Krebs-Henseleit) at 4° C. in order to stop any contraction.
The heart with fatty tissues removed is then perfused according to Langendorff's technique by aortic retrograde route at a constant pressure of 90 cm H2O. A small incision in the pulmonary artery allows the flow and measurement of the coronary effluent over time (coronary flow rate). The time required for completion of the entire operation is two to three minutes. After ablation of the left auricle, a latex cuff is inserted into the left ventricle and filled with a volume of distilled water (50-60 μl) which remains constant during the experimental protocol, connected to a pressure sensor (GOULD) and to a differentiating recorder allowing the measurement of the following haemodynamic parameters: • intraventricular diastolic pressure (Pdia) • developed pressure of left ventricle Pdev=Psystolic−Pdia • dP/dt (first derivative of the developed pressure, cardiac contractility index in this model) • cardiac frequency (F) • cardiac work calculated according to the relationship W=Pdev×F […]

[2] = Competition with DMPO for the tBuO radical, DMPO-tBuO adduct signal measured by EPR
Procedure: The nitrones trap the radical species (R.; RO.) and allow their observation by electron paramagnetic resonance (EPR) (Degray J. et al. Electron Spin Resonance, Ed N. M. Atherton, Atheaeum Press Ltd; Cambridge, 1994, 14, 246).
The incubation of the DMPO (Interchim-U2469) (20 mM) in deoxygenated toluene (Sigma-Aldrich) in the presence of the tBuO (tert-butoxyl) radical, generated by photolysis, makes it possible to identify and quantify by EPR the signal of the DMPO-tBuO radical. This signal is inhibited in the presence of an equimolar quantity of 3,5-seco-4-nor-cholestane oxime.
The EPR signal allows integration in the form of an area of the signal of the DMPO-tBuO adduct and therefore a relative quantification of this radical entity.
All the experiments were carried out on an X-band Bruker ESP300 device (9.5 GHz) at ambient temperature. The solutions were studied in a quartz EPR tube.

[3] = Chemical stability of the powder under ICH storage conditions, total impurities by GC-FID; format: physicochemical; conditions: for total impurities: powder
Procedure: These analyses were carried out using a gas chromatography method coupled with an FID detector. This method makes it possible to quantify the impurities at a level of 0.2%.

[4] = Pharmacokinetics in the rat, oral and intravenous routes; format: in vivo; conditions: 500 mg/kg by oral route, suspension in corn oil, i.v. reference in cremophor/ethanol/water
Procedure: A study of pharmacokinetics with administration by oral route in suspension in corn oil and by intra-venous route in solution in cremophor/ethanol/water (5%, 10%, 85%) made it possible to calculate the bioavailability of the product. The assay of the product in the plasma is carried out by a high pressure liquid chromatography method coupled with mass spectrometry.

[5] = Oxidation of cumene to cumene hydroperoxide by oxygen with AIBN, assayed by HPLC-UV; conditions: for % of reduction of the oxidation of the cumene / Area of the signal, in relative units, of the cumene hydroperoxide: 2 equivalents of AIBN, 2 hours 45° C.
Procedure: The oxidation of cumene at atmospheric pressure and at 37° C. by oxygen is known and described in the presence of a radical initiator such as AIBN (azobisisobutyronitrile) (Blanchard H. S., J. Am. Chem. Soc. 1959, 81, 4548). A recent publication used this reaction to classify the antioxidant potential of known products such as vitamin E (which is the universal reference), BHT (butylated hydroxytoluene) and other products.
In the following experiment we reproduced the same experimental conditions as those described in the publication of Becker D. A. et al. (J. Am. Chem. Soc. 2002, 124, 4678-4684). A high pressure liquid chromatography method coupled with a UV detector was used to detect cumene hydroperoxide. The column used is an Agilent Zorbax Eclipse XDB RPC8 column (150×4.6 mm) coupled with a UV detector fixed at 254 nm. The gradient used is detailed in the following table: […]
2 ml of cumene (AcrosOrganic) and 0.5 ml of methanol are mixed, azobisisobutyronitrile (AcrosOrganic) is added (2 equivalents) and the solution taken to 45° C. in order to accelerate the chemical reaction. The cumene hydroperoxide appears over time and is assayed by the HPLC method.
The technique used made it possible to compare the appearance of the cumene hydroperoxide in the presence of an antioxidant agent such as the claimed products and vitamin E used as reference product.

change in the quality of the product ([3]; after 1 year's storage at 25° C.): No change in the quality
change in the quality of the product ([3]; after 6 months of storage at 40° C.): No change in the quality
total impurities ([3]; 25° C. under 60% relative humidity, T0): 0.2%
total impurities ([3]; 25° C. under 60% relative humidity, T12 months): 0.2%
total impurities ([3]; 40° C. under 75% relative humidity, T0): 0.2%
total impurities ([3]; 40° C. under 75% relative humidity, T6 months): 0.2%
bioavailability [4]: 6%
Compound: CC(C)CCC[C@@H](C)[C@H]1CC[C@H]2[C@@H]3CC/C(=N\O)[C@](C)(CCCO)[C@H]3CC[C@]12C [3,5-seco-4-nor-cholestan-5-one oxime-3-ol]
extracellular production of free radical scavenging adducts (DMPO-OH) in the coronary effluents ([1]; 1 μM in Krebs buffer, DMPO 50 mM, reperfusion after ischaemia, p<0.05): large and significant reduction
protection with respect to the vehicle (DMPO-OH adducts, FIG. 1) ([1]; 1 μM, two groups of 6 hearts): significant protection
% inhibition of the DMPO-tBuO radical ([2]; compound 20 mM + DMPO 20 mM, 200 s): 50%
% inhibition of the DMPO-tBuO radical ([2]; compound 20 mM + DMPO 20 mM, 400 s): 66%
Area of the DMPO-tBuO signal at 200 s in relative units ([2]; compound 20 mM + DMPO 20 mM, (t-BuO)2 20 mM, photolysis at 350 nm, 200 s): 3 relative units
Area of the DMPO-tBuO signal at 400 s in relative units ([2]; compound 20 mM + DMPO 20 mM, (t-BuO)2 20 mM, photolysis at 350 nm, 400 s): 4 relative units
effect on the DMPO-tBuO EPR signal ([2]; equimolar quantity to DMPO (20 mM), deoxygenated toluene): inhibited
inhibition of the level of the DMPO-tBuO signal radical (conclusion) ([2]; equimolar with DMPO): ~60%
kinetics of inhibition of the DMPO-tBuO signal (time) ([2]; rapid kinetics): less than 10 minutes
reduction of the oxidation of the cumene by oxygen (conclusion) [5]: approximately 40%
% of reduction of the oxidation of the cumene ([5]; 50 μM): 25%
Area of the signal, in relative units, of the cumene hydroperoxide ([5]; 50 μM): 300 relative units
% of reduction of the oxidation of the cumene ([5]; 200 μM): 50%
Area of the signal, in relative units, of the cumene hydroperoxide ([5]; 200 μM): 200 relative units
activity compared with vitamin E ([5]; same concentrations): same order of magnitude

Compound: vitamin E [reference compound]
% of reduction of the oxidation of the cumene ([5]; 100 μM): 39%
Area of the signal, in relative units, of the cumene hydroperoxide ([5]; 100 μM): 245 relative units
